Measured values: paper PMC6355875 (Scientific Reports, 2019)

How the values were obtained:
Type in all cases: cell-based
hPPAR-γ = target: T1, hPPAR-γ (Homo sapiens, UniProt P37231); assay: GAL4-DBD hPPARγ/LBD luciferase reporter assay in HEK293T cells; settings: activation, overnight
T1 construct: expressed in transfected cells; host or cells: HEK293T
T1 sequence (P37231 184-477 isoform P37231-2): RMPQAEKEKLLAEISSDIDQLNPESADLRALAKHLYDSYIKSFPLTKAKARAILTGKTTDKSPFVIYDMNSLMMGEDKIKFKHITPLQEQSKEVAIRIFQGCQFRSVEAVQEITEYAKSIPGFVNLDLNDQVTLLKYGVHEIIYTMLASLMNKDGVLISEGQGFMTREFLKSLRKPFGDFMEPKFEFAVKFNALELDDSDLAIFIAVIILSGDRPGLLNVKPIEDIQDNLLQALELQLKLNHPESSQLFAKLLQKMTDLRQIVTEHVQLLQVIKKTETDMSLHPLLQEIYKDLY
Method: (§1) A GAL4-DNA Binding Domain (GAL4-DBD) fusion protein was constructed for each PPAR family member. To assess compound activity, each construct was co-transfected into HEK293T cells (American Type Culture Collection; Manassass, VA) along with the reporter construct, pGL5 (Promega) using Fugene 6 (Promega) as a transfection reagent and the manufacturer’s protocol. An eleven point dilution series of each compound was added to the cells and incubated overnight. Luciferase levels were then determined following the addition of Bright-Glo (Promega) using the manufacturer’s recommendations.

hPPAR-α = target: T2, hPPAR-α (Homo sapiens, UniProt Q07869); assay: GAL4-DBD hPPARα/LBD luciferase reporter assay in HEK293T cells; settings: activation, overnight
T2 construct: expressed in transfected cells; host or cells: HEK293T
T2 sequence (Q07869 175-468): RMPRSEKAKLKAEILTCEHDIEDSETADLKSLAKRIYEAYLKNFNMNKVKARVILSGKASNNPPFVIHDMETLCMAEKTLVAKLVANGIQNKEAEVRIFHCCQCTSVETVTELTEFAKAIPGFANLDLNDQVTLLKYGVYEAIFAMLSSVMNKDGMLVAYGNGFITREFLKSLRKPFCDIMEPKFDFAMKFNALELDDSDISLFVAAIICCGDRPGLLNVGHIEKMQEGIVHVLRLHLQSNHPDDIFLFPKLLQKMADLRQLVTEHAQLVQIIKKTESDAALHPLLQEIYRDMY
Method: as §1

hPPAR-δ = target: T3, hPPAR-δ (Homo sapiens, UniProt Q03181); assay: GAL4-DBD hPPARδ/LBD luciferase reporter assay in HEK293T cells; settings: for EC50: activation, HEK293T reporter, overnight; for hPPAR subtype profile: from EC50 on hPPAR-δ, -α, -γ
T3 construct: expressed in transfected cells; host or cells: HEK293T
T3 sequence (Q03181 147-441): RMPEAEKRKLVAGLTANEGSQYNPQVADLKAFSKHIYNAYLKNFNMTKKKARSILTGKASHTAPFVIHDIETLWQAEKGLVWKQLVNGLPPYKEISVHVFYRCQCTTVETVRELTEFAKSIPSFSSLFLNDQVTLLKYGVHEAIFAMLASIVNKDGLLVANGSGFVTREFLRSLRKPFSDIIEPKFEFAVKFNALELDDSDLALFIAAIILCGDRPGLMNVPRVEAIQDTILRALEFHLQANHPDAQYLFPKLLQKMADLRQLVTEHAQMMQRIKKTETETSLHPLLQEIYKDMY
Method: as §1

Row | SMILES | EC50 (hPPAR-γ) [µM] | EC50 (hPPAR-α) [µM] | EC50 (hPPAR-δ) [µM] | hPPAR subtype profile (hPPAR-δ)
1 | CCOc1cc(/C=C/C(=O)O)ccc1OCc1ccc(C(C)(C)C)cc1 [GNF-4516, CCOC1=CC(C=CC(O)=O)=CC=C1OCC1=CC=C(C=C1)C(C)(C)C] | > 10 | 2.33 | 6.82 | 
2 | O=C(OCC(=O)c1ccc(O)cc1O)c1ccc(COc2ccc3ccccc3c2)o1 [GNF-6928, OC1=CC=C(C(=O)COC(=O)C2=CC=C(COC3=CC=C4C=CC=CC4=C3)O2)C(O)=C1] | 3.78 | 6.9 | 3.7 | 
3 | Cc1cc(C(=O)COc2ccc(C(=O)O)cc2)c(C)n1CCC1=CCCCC1 [GNF-9057, CC1=CC(C(=O)COC2=CC=C(C=C2)C(O)=O)=C(C)N1CCC1=CCCCC1] | 8.59 | 4.63 | 7.49 | 
4 | COc1cc(/C=C2/S/C(=N/c3ccccc3)NC2=O)ccc1OCc1cccc(C(=O)O)c1 [GNF-5758, COC1=CC(C=C2SC(NC2=O)=NC2=CC=CC=C2)=CC=C1OCC1=CC=CC(=C1)C(O)=O] | 9.73 | 6.93 | 4.33 | 
5 | Cc1ccc(C(=O)Nc2cccc(CNCc3ccc(OC(F)(F)F)cc3)c2)cc1 [GNF-0341, CC1=CC=C(C=C1)C(=O)NC1=CC=CC(CNCC2=CC=C(OC(F)(F)F)C=C2)=C1] | 1.26 | > 10 | 0.011 | agonists of hPPAR-δ and hPPAR-γ only
6 | CCOc1cccc(/C=N/c2cccc(-c3csc(/N=C/c4cccc(OCC)c4O)n3)c2)c1O [GNF-6878, CCOC1=CC=CC(C=NC2=NC(=CS2)C2=CC=CC(=C2)N=CC2=CC=CC(OCC)=C2O)=C1O] | > 10 | > 10 | 0.008 | 
7 | O=C(COc1ccc(C(=O)O)cc1)NC(c1ccccc1)c1ccc(Cl)cc1 (centres unmarked) [GNF-0248, OC(=O)C1=CC=C(OCC(=O)NC(C2=CC=CC=C2)C2=CC=C(Cl)C=C2)C=C1] | > 10 | 7.04 | 7.55 | 
8 | Cc1ccc(-c2nc(SCCCC(=O)N3CCOCC3)[nH]c2-c2ccc(C)cc2)cc1 [GNF-9820, CC1=CC=C(C=C1)C1=C(N=C(N1)SCCCC(=O)N1CCOCC1)C1=CC=C(C)C=C1] | > 10 | > 10 | 0.012 | 
9 | O=[N+]([O-])c1cc(S(=O)(=O)N2CCCC2)ccc1OCC(O)CNCc1ccc(F)cc1 (centres unmarked) [GNF-9594, OC(CNCC1=CC=C(F)C=C1)COC1=CC=C(C=C1[N+]([O-])=O)S(=O)(=O)N1CCCC1] | > 10 | > 10 | 4.6 | 
10 | O=C(NCc1ccc(COCC(F)(F)F)cc1)c1cc(-c2ccccc2)[nH]n1 [GNF-3632, FC(F)(F)COCC1=CC=C(CNC(=O)C2=NNC(=C2)C2=CC=CC=C2)C=C1] | > 10 | 5.48 | 0.007 | agonists of hPPAR-δ and hPPAR-α only
11 | O=C(Nc1ccccc1O)C1CCN(C(=O)COc2ccc(F)cc2)CC1 [GNF-5891, OC1=CC=CC=C1NC(=O)C1CCN(CC1)C(=O)COC1=CC=C(F)C=C1] | 7.28 | > 10 | 0.013 | 
12 | COc1ccc(C(=O)/C=C/c2c(C)nn(-c3ccccc3)c2Cl)cc1CSCC(=O)O [GNF-4909, COC1=CC=C(C=C1CSCC(O)=O)C(=O)C=CC1=C(Cl)N(N=C1C)C1=CC=CC=C1] | 1.83 | 0.825 | 8.24 | 
13 | O=C(Nc1cccc(CNCC(c2cccs2)N2CCOCC2)c1)c1ccc(Cl)cc1 (centres unmarked) [GNF-6029, ClC1=CC=C(C=C1)C(=O)NC1=CC=CC(CNCC(N2CCOCC2)C2=CC=CS2)=C1] | > 10 | > 10 | 0.012 | 
14 | COCCCn1c(SCc2cccc(C(=O)O)c2)nc2sc3c(c2c1=O)CCCS3 [GNF-5154, COCCCN1C(=O)C2=C(SC3=C2CCCS3)N=C1SCC1=CC=CC(=C1)C(O)=O] |  |  | 7.04 | 
15 | O=C(O)Cc1csc(SCc2cc(F)cc3c2OC(c2ccccc2)OC3)n1 (centres unmarked) [GNF-1051, OC(=O)CC1=CSC(SCC2=CC(F)=CC3=C2OC(OC3)C2=CC=CC=C2)=N1] | > 10 | 7.33 | 7.76 | 
16 | CCCOc1c(/C=C/C(=O)c2ccc(SCC(=O)O)c(OC)c2)cccc1OCC [GNF-1676, CCCOC1=C(OCC)C=CC=C1C=CC(=O)C1=CC=C(SCC(O)=O)C(OC)=C1] | 1.29 | 6.19 | 8.39 | 
17 | COc1cc(CNCc2cc(C)on2)ccc1OCC(=O)Nc1ccc(Br)cc1 [GNF-6952, COC1=CC(CNCC2=NOC(C)=C2)=CC=C1OCC(=O)NC1=CC=C(Br)C=C1] | > 10 | 7.56 | 0.019 | agonists of hPPAR-δ and hPPAR-α only
18 | Cc1cccc(OCCNC(=O)COc2ccc(CC(=O)O)cc2)c1 [GNF-0242, CC1=CC=CC(OCCNC(=O)COC2=CC=C(CC(O)=O)C=C2)=C1] | > 10 | > 10 |  | 
19 | O=C(CN1CCN(c2ccc(O)cc2)CC1)NCC1(N2CCOCC2)CCCCC1 [GNF-8501, OC1=CC=C(C=C1)N1CCN(CC(=O)NCC2(CCCCC2)N2CCOCC2)CC1] | > 10 | > 10 | 0.006 | 
20 | O=C(NCCCCOc1ccc(F)cc1)c1ccc([N+](=O)[O-])c(O)c1 [GNF-7176, OC1=CC(=CC=C1[N+]([O-])=O)C(=O)NCCCCOC1=CC=C(F)C=C1] | > 10 | > 10 | 7.24 | 
21 | Cc1cc(C(=O)COC(=O)c2ccc(O)cc2O)c(C)n1Cc1ccc(F)cc1 [GNF-9969, CC1=CC(C(=O)COC(=O)C2=CC=C(O)C=C2O)=C(C)N1CC1=CC=C(F)C=C1] | 1.01 | 6.94 | 9.48 | 
22 | COc1ccc(CNCc2ccc(Oc3cccnc3)c(F)c2)cc1O [GNF-8065, COC1=CC=C(CNCC2=CC=C(OC3=CC=CN=C3)C(F)=C2)C=C1O] | > 10 | > 10 |  | 
23 | O=C(Nc1ccccc1O)C1CCN(C(=O)c2ccc(OCC3CCCO3)cc2)CC1 (centres unmarked) [GNF-9448, OC1=CC=CC=C1NC(=O)C1CCN(CC1)C(=O)C1=CC=C(OCC2CCCO2)C=C1] | 0.937 | 7.06 | 0.883 | 
24 | CC(C(=O)Nc1ccc(SC(F)F)cc1)N1CC=C(c2ccc(O)cc2)CC1 (centres unmarked) [GNF-8208, CC(N1CCC(=CC1)C1=CC=C(O)C=C1)C(=O)NC1=CC=C(SC(F)F)C=C1] | > 10 | > 10 | 7.86 | 
25 | COc1ccc(N2CCN(C(=O)CSc3nnc(COc4ccc(Cl)cc4C)[nH]3)CC2)cc1 [GNF-7486, COC1=CC=C(C=C1)N1CCN(CC1)C(=O)CSC1=NN=C(COC2=CC=C(Cl)C=C2C)N1] | > 10 | > 10 | 0.018 | 
